Results: patent US5157052A, “Method for inhibiting IgE production” (priority 1990, dated 1992)

Experiments:
IgE = assay: ED50 for inhibition of IgE calculated from the examples; assay type: in vivo, mouse; conditions: dose to achieve 50% inhibition of IgE
Description: From the data in the above examples, the effective dose of each prostaglandin to achieve 50% inhibition of IgE (ED50) was calculated.

[1] = Diarrheal effects in rats; conditions: rat, in vivo, po
Description: Briefly, adult Charles River male rats weighing 210-230 g were individually housed and fasted with water available ad libitum for 24 hours prior to the test. The animals (N=6-12) received logarithmically graded prostaglandin doses orally. Immediately after administration, the animals were returned to their cages, and diarrhea, if any, was assessed on an all or none basis for 8 hours after drug treatment. The ED50 and relative potency values were calculated by the logistic method of Berkson.

IgG1 = assay: Serum IgG1 in anti-IgD stimulated mice (two site sandwich ELISA, Assay B); assay type: in vivo, mouse (Balb/c female); conditions: for inhibition of IgG1: Example 25
Description: (§1) Sera from mice treated with compounds in accordance with the method of the invention are analyzed for levels of IgG1, IgG2a, IgG3, and IgM.
Mouse IgG1 measurement by a two site sandwich ELISA is as follows. About 5 μg of rabbit anti mouse IgG (Organon-Teknika-Cappel, Malvern, Pa.) is attached to the wells of a NuncImmulon 96 well plate and IgG1 levels are determined in substantial accordance with Assay A except with the following changes. The IgG1 standard is purchased from Southern BioTech, Birmingham, Ala., and stored at 10 μg/ml in 2% NBS in PBS at 4° C. The standard curve is prepared by diluting the mouse IgG1 standard in 0.05% Tween-80 in PBS, and is linear between 3.9 and 250 ng/ml. Serum containing IgG1 is diluted 1/10,000 to 1/1,000,000 in 0.05% Tween 80-PBS, to place the measurement within the standard curve. Standard IgG1 (or diluted serum) is incubated at about 37° C. for 1 hour and the plates are washed with 0.05% Tween 80-PBS as described in Assay A. About a 1/3,000 dilution of Goat anti mouse IgG1 (Southern Biotech, Birmingham, Ala.) conjugated to alkaline phosphatase in 0.05% Tween 80-PBS is added to each well and incubated at about 37° C. for 60 minutes. The plate is washed and colorimetric substrate, prepared as described by the manufacturer (Alkaline Phosphatase Substrate System, KPL, Gaithersburg, Md.), is added and optical density and data analysis is performed in the same manner as Assay A.
(§2) Sera from the mice described in Example 13 are analyzed for the levels of IgG1, IgG2a, and IgG3 by Assays B, C, and D, respectively.
(§3) Two groups of 4 Balb/c female mice per group are injected with both 100 μg FF1-4D5 antibody and 100 μg H∂A1 antibody. One of these groups is a stimulated control designated Group B. On day 3 and 4, the other group is injected with 40 μg (±) methyl 11α, 16-dihydroxy-1-methyl-9-oxoprosta-4Z,13E-dien-1-oate. Another group is injected with only PBS as an unstimulated control (Group A). On day -1 and 8, 50-100 μl of serum is recovered and analyzed for IgE, IgG1 and IgG2a by Assays A, B, and C, respectively.
(§4) 3 groups of 4 Balb/c female mice per group are injected with both 100 μg FF1-4D5 antibody and 100 μg H∂A1 antibody on day 0. Group A is given no further treatment. On day 3 and 4, one group of mice is injected with 20 μg (±) methyl 2-[2-[3R-3α-hydroxy-2β-(4-hydroxy-4-methyl-1E-octenyl-5-oxo-1α-cyclopentyl]-methyl]cyclopropanebutanoate (Group B) and another group with 20 μg (±) methyl 2-[2-[3R-3α-hydroxy-2β-(4-hydroxy-4-methyl-1E-octenyl)-5-oxo-1α-cyclopentyl]ethyl]cyclopropanepropanoate (Group C) as in Example 13. On day -1 and 8, 50-100 μl of serum is recovered and analyzed for IgE, IgG1, IgG2a and IgG3 by Assays A, B, C and D, respectively. The selectivity of inhibition of IgE is shown in Table 12.
(§5) Three groups of 5 Balb/c female mice per group are injected with both 100 μg FF1-4D5 antibody and 100 μg H∂A1 antibody on day 0. Group A is a control with no further treatment. On day 3 and 4, the mice are injected with 20 μg (±) methyl 11α,16-dihydroxy-4,4,16-trimethyl-9-oxoprosta-13E-en-1-oate (Group B) or 20 μg (±) methyl 11α,16-dihydroxy-16-methyl-9-oxoprosta-3,5Z,13E-trien-1-oate (Group C) as in Example 13. On day -1 and 8, […] of serum is recovered and analyzed for IgE, IgG1, IgG2a, IgG3 and IgM by Assays A, B, C, D and E, respectively.

IgG3 = assay: Serum IgG3 in anti-IgD stimulated mice (two site sandwich ELISA, Assay D); assay type: in vivo, mouse (Balb/c female); conditions: for inhibition of IgG3: Example 25
IgG2a = assay: Serum IgG2a in anti-IgD stimulated mice (two site sandwich ELISA, Assay C); assay type: in vivo, mouse (Balb/c female); conditions: for inhibition of IgG2a: Example 25
Description: as §1
Measurement of mouse IgG2a by a two site sandwich ELISA is performed in substantial accordance with the teaching of Assay B except with the following changes. NuncImmulon II plates are used in this assay. The IgG2a standard is purchased from Southern Biotech. The standard curve is linear between 4-250 ng/ml. Serum containing IgG2a is diluted 1/6400 to 1/1,000,000. About a 1/6,000 dilution of goat anti mouse IgG2a (Southern Biotech) conjugated to alkaline phosphatase is used.
as §2, §3, §4, §5

[2] = Table 14, 20 μg days 3 and 4, day 8 (control 21703)
[3] = Table 14, 20 μg days 3 and 4, day 8 (control 1538)
[4] = Table 14, 20 μg days 3 and 4, day 8 (control 1246)
[5] = 40 μg IP days 3 and 4, day -1 baseline before treatment
[6] = 2 μg IP days 3 and 4, day -1 baseline before treatment
[7] = 5 μg IP days 3 and 4, day -1 baseline before treatment
[8] = 10 μg IP days 3 and 4, day -1 baseline before treatment
[9] = 20 μg IP days 3 and 4, day -1 baseline before treatment

CCCCC(C)(O)C/C=C/[C@H]1[C@H](O)CC(=O)[C@@H]1CCCC(C)(C)CCC(=O)OC (mixture of isomers) [(±) methyl 11α,16-dihydroxy-4,4,16-trimethyl-9-oxoprost-13E-en-1-oate]
ED50 IgE Inhibition (IgE): 1.5 μg/mouse/TID
TD50 at 8 h [1]: 0.185 mg/kg
inhibition of IgG1 (IgG1; 20 μg days 3 and 4): not IgG1, IgG2a, IgG3 and IgM
IgG1 ± SD (IgG1; [2]): 22555 ± 5821 µg/mL
inhibition of IgG3 (IgG3; 20 μg days 3 and 4): not IgG1, IgG2a, IgG3 and IgM
IgG3 ± SD (IgG3; [3]): 2103 ± 616 µg/mL
inhibition of IgG2a (IgG2a; 20 μg days 3 and 4): not IgG1, IgG2a, IgG3 and IgM
IgG2a ± SD (IgG2a; [4]): 1019 ± 278 µg/mL

CCCCC(C)(O)C/C=C/[C@H]1[C@H](O)CC(=O)[C@@H]1C/C=C\CCCC(=O)OC (mixture of isomers) [(±) methyl 11α,16-dihydroxy-16-methyl-9-oxoprosta-5Z,13E-dien-1-oate]
ED50 IgE Inhibition (IgE): 1.0 μg/mouse/TID
TD50 at 8 h [1]: 0.173 mg/kg
IgG1 ± SD (IgG1; 40 μg IP days 3 and 4, day 8): 15666 ± 2300 µg/mL
IgG1 ± SD (IgG1; [5]): 175 ± 32 µg/mL
IgG3 ± SD (IgG3; 2 μg IP days 3 and 4, day 7 (control 227)): 370 ± 229 µg/mL
IgG3 ± SD (IgG3; 2 μg IP days 3 and 4, day 8 (control 519)): 882 ± 310 µg/mL
IgG3 ± SD (IgG3; 2 μg IP days 3 and 4, day 9 (control 510)): 741 ± 475 µg/mL
IgG3 ± SD (IgG3; 2 μg IP days 3 and 4, day 11 (control 465)): 687 ± 152 µg/mL
IgG3 ± SD (IgG3; [6]): 70 ± 10 µg/mL
IgG3 ± SD (IgG3; 5 μg IP days 3 and 4, day 7): 464 ± 161 µg/mL
IgG3 ± SD (IgG3; 5 μg IP days 3 and 4, day 8): 640 ± 46 µg/mL
IgG3 ± SD (IgG3; 5 μg IP days 3 and 4, day 9): 649 ± 232 µg/mL
IgG3 ± SD (IgG3; 5 μg IP days 3 and 4, day 11): 559 ± 162 µg/mL
IgG3 ± SD (IgG3; [7]): 109 ± 44 µg/mL
IgG3 ± SD (IgG3; 10 μg IP days 3 and 4, day 7): 494 ± 267 µg/mL
IgG3 ± SD (IgG3; 10 μg IP days 3 and 4, day 8): 789 ± 264 µg/mL
IgG3 ± SD (IgG3; 10 μg IP days 3 and 4, day 9): 760 ± 340 µg/mL
IgG3 ± SD (IgG3; 10 μg IP days 3 and 4, day 11): 802 ± 216 µg/mL
IgG3 ± SD (IgG3; [8]): 68 ± 2 µg/mL
IgG3 ± SD (IgG3; 20 μg IP days 3 and 4, day 7): 446 ± 266 µg/mL
IgG3 ± SD (IgG3; 20 μg IP days 3 and 4, day 8): 1075 ± 453 µg/mL
IgG3 ± SD (IgG3; 20 μg IP days 3 and 4, day 9): 1636 ± 275 µg/mL
IgG3 ± SD (IgG3; 20 μg IP days 3 and 4, day 11): 1288 ± 156 µg/mL
IgG3 ± SD (IgG3; [9]): 77 ± 10 µg/mL
IgG3 ± SD (IgG3; 40 μg IP days 3 and 4, day 7): 236 ± 84 µg/mL
IgG3 ± SD (IgG3; 40 μg IP days 3 and 4, day 8): 639 ± 104 µg/mL
IgG3 ± SD (IgG3; 40 μg IP days 3 and 4, day 9): 1048 ± 167 µg/mL
IgG3 ± SD (IgG3; 40 μg IP days 3 and 4, day 11): 1044 ± 115 µg/mL
IgG3 ± SD (IgG3; [5]): 68 ± 6.5 µg/mL
IgG2a ± SD (IgG2a; 2 μg IP days 3 and 4, day 7 (control 139)): 114 ± 61 µg/mL
IgG2a ± SD (IgG2a; 2 μg IP days 3 and 4, day 8 (control 554)): 277 ± 111 µg/mL
IgG2a ± SD (IgG2a; 2 μg IP days 3 and 4, day 9 (control 923)): 1053 ± 256 µg/mL
IgG2a ± SD (IgG2a; 2 μg IP days 3 and 4, day 11 (control 951)): 1124 ± 219 µg/mL
IgG2a ± SD (IgG2a; [6]): 25 ± 25 µg/mL
IgG2a ± SD (IgG2a; 5 μg IP days 3 and 4, day 7): 133 ± 67 µg/mL
IgG2a ± SD (IgG2a; 5 μg IP days 3 and 4, day 8): 481 ± 192 µg/mL
IgG2a ± SD (IgG2a; 5 μg IP days 3 and 4, day 9): 1093 ± 245 µg/mL
IgG2a ± SD (IgG2a; 5 μg IP days 3 and 4, day 11): 1540 ± 201 µg/mL
IgG2a ± SD (IgG2a; [7]): 58 ± 66 µg/mL
IgG2a ± SD (IgG2a; 10 μg IP days 3 and 4, day 7): 107 ± 45 µg/mL
IgG2a ± SD (IgG2a; 10 μg IP days 3 and 4, day 8): 276 ± 168 µg/mL
IgG2a ± SD (IgG2a; 10 μg IP days 3 and 4, day 9): 855 ± 117 µg/mL
IgG2a ± SD (IgG2a; 10 μg IP days 3 and 4, day 11): 1097 ± 289 µg/mL
IgG2a ± SD (IgG2a; [8]): 26 ± 7 µg/mL
IgG2a ± SD (IgG2a; 20 μg IP days 3 and 4, day 7): 182 ± 105 µg/mL
IgG2a ± SD (IgG2a; 20 μg IP days 3 and 4, day 8): 493 ± 187 µg/mL
IgG2a ± SD (IgG2a; 20 μg IP days 3 and 4, day 9): 1170 ± 285 µg/mL
IgG2a ± SD (IgG2a; 20 μg IP days 3 and 4, day 11): 2133 ± 862 µg/mL
IgG2a ± SD (IgG2a; [9]): 29 ± 9 µg/mL
IgG2a ± SD (IgG2a; 40 μg IP days 3 and 4, day 7): 81 ± 12 µg/mL
IgG2a ± SD (IgG2a; 40 μg IP days 3 and 4, day 8): 433 ± 314 µg/mL
IgG2a ± SD (IgG2a; 40 μg IP days 3 and 4, day 9): 1177 ± 383 µg/mL
IgG2a ± SD (IgG2a; 40 μg IP days 3 and 4, day 11): 1667 ± 675 µg/mL
IgG2a ± SD (IgG2a; [5]): 23 ± 1 µg/mL

CCCCC(C)(O)C/C=C/[C@H]1[C@H](O)CC(=O)[C@@H]1C/C=C\C=CCC(=O)OC (relative stereo) [(±) methyl 11α,16-dihydroxy-16-methyl-9-oxoprosta-3,5Z,13-trien-1-oate]
ED50 IgE Inhibition (IgE): 6.5 μg/mouse/TID
TD50 at 8 h [1]: 0.57 mg/kg
inhibition of IgG1 (IgG1; 20 μg days 3 and 4): not IgG1, IgG2a, IgG3 and IgM
IgG1 ± SD (IgG1; [2]): 18320 ± 4695 µg/mL
inhibition of IgG3 (IgG3; 20 μg days 3 and 4): not IgG1, IgG2a, IgG3 and IgM
IgG3 ± SD (IgG3; [3]): 1709 ± 429 µg/mL
inhibition of IgG2a (IgG2a; 20 μg days 3 and 4): not IgG1, IgG2a, IgG3 and IgM
IgG2a ± SD (IgG2a; [4]): 1202 ± 338 µg/mL
